{"source": "patent US20050038000A1", "about": "“Methods and compositions for the treatment of amyloid-and epileptogenesis-associated diseases” (priority 2003, published 2005)", "system": "spontaneous recurrent seizures", "assay": "\"spontaneous recurrent seizures\" (SRS) model of epilepsy", "type": "in vivo", "details": "rat, 20 mg/kg/day i.v. for 10 day", "method": "The “spontaneous recurrent seizures” (SRS) model of epilepsy is used to evaluate candidate compounds in a model for Phase 1 epileptogenesis (see, e.g., Mello, E. et al., Epilepsia (1993) 34:985; Cavalheiro, J. et al., Epilepsia (1991) 32:778). In the SRS model, an adult male Sprague-Dawley rat (c. 260 g) is given kainic acid by injection ([…].). Within 25 minutes, the animal enters status epilepticus, which typically lasts for 15-20 hours (although about 10% of animals die at this stage). The rat is allowed to spontaneously recover and is given food and water ad lib. and maintained on a 12 hour light/dusk cycle. Beginning on about day 13-15, the rats develop spontaneous recurrent seizures, which occur at the rate of about 4-5 per week. The rats are videotaped 8 hours per day, and the videotapes are reviewed for behavioral seizures (including head nodding, forelimb clonus, and rearing), which are counted. The animals are watched for a few weeks to a few months (2 weeks to three months), permitting evaluation of a sufficient number of seizures. An experimental compound for evaluation can be administered at either of two times: Time 1, on Day 1, after the cessation of status epilepticus but before the onset of SRS; or Time 2, on Day 30, when the rats have been experiencing SRS for about two weeks. […]"}
{"molecule": "O=C1NC(=O)C(c2ccccc2)(c2ccccc2)N1", "note": "[phenytoin]", "values": [{"measurement": "preventing the onset of seizures", "setting": "administered at Time 1 (Day 1, before onset of SRS)", "result": "ineffective"}, {"measurement": "effective at decreasing seizure frequency by 50% or more", "setting": "administered at Time 2 (Day 30, established SRS)", "result": 75, "unit": "%"}]}
